Assay results reported in US20180200257A1, “METHODS FOR THE TREATMENT OF INFLAMMATORY DISORDERS” (Galapagos NV, priority 2015, published 2018).

System: subjects with moderately to severely active RA who have an inadequate response to methotrexate (MTX)
Experiment: Study 1 (add-on to MTX) - ACR responses (ACR20/50/70)
Type: in vivo, human
Description: The terms “ACR20”, “ACR50” and “ACR70” as used herein are scores which indicate how much a patient's rheumatoid arthritis has improved according to criteria set out by the American College of Rheumatology (ACR). The ACR score represents a percentage. An ACR20 score means that a person's RA has improved by 20%, an ACR50 score means it has improved by 50%, and an ACR70 score means it has improved by 70%. Specifically, to qualify for an ACR20 score, a person with RA must have at least 20% fewer tender joints and at least 20% fewer swollen joints. In addition the patient must show a 20% improvement in at least three of the following five areas: the person's overall (global) assessment of his or her own RA, the physician's global assessment of the person's RA, the person's assessment of his or her own pain, the person's assessment of his or her own physical functioning, and the results of an erythrocyte sedimentation rate or C-reactive protein (CRP) blood test (both of which test for inflammation). ACR50 and ACR70 scores use the same criteria but require 50% and 70% improvement, respectively, (Felson et al., 1993). In the data presented herein the CRP blood test is used.
Double-blind, placebo-controlled add on study in subjects with moderately to severely active RA who have an inadequate response to methotrexate (MTX) (oral or parenteral).
595 subjects randomized to one of 6 dose regimens of Compound 1 (dosed as [Compound 1:HCl:3H2O]) (3 dose levels administered either once or twice daily) or placebo on top of each subject's stable dose of MTX.
Compound 1 (dosed as [Compound 1:HCl:3H2O]) is dosed for twelve weeks once daily (q.d.) (50 mg, 100 mg or 200 mg) or twice daily (b.i.d.) (25 mg, 50 mg or 100 mg); or placebo.
At Week 12, the subjects on placebo who have not achieved 20% improvement in swollen joint count (SJC66) and tender joint count (TJC68) are re-randomized automatically to receive Compound 1 (dosed as a [Compound 1:HCl:3H2O]) either at 100 mg q.d. or 50 mg b.i.d. doses in a blinded fashion; subjects on 50 mg q.d. who have not achieved 20% improvement in SJC66 and TJC68 will be assigned to 100 mg q.d. and subjects on 25 mg b.i.d. that have not achieved a 20% improvement in SJC66 and TJC68 will be assigned to 50 mg b.i.d. Subjects who switch treatment at week 12 are handled as if they discontinued at week 12 for the purpose of statistical analysis, whereas subjects in the other groups will maintain their randomized treatment until Week 24.
The American College of Rheumatology (ACR) composite score, which evaluates clinical improvement relative to an initial assessment, is a commonly accepted efficacy end point for clinical trials in patients with rheumatoid arthritis. The ACR score correspond to a percentage improvement in pre-set parameters, and therefore measures the evolution of the disease in a patient. For example, ACR20 denotes at least 20% improvement in tender and swollen joint counts and in three of the following end points: global assessment by the patient, global assessment by the doctor, C reactive protein (CRP), patient's pain Visual Analogue Scale and Health Assessment Questionnaire Score. The number of swollen joints, ESR and CRP correlate with radiographic progression of joint damage, whereas tender joint counts, as well as global assessments by doctors and patients, and patients' reports of pain, are sensitive to change in clinical outcomes. Physical function, as assessed by the Health Assessment Questionnaire Score, is a potent predictor of the risk of disability in rheumatoid arthritis (Felson and American College of Rheumatology Committee to Reevaluate Improvement Criteria, 2007; Felson et al., 1993).
In particular, the list of parameters used to assess ACR score can be found in the Table XCVI below and the results of the ACR responses at week 12 via either NRI or LOCF are shown in the tables below. The Hommel-corrected p-value for the pairwise comparisons of each group with placebo is shown. […]

[1] = 2 × 50 mg b.i.d., week 12, 12 weeks results
[2] = 2 × 50 mg b.i.d., week 12, 24 weeks results
[3] = 2 × 50 mg b.i.d., week 16, 24 weeks results
[4] = 2 × 50 mg b.i.d., week 20, 24 weeks results
[5] = 2 × 50 mg b.i.d., week 24, 24 weeks results
[6] = 2 × 50 mg b.i.d., at week 1, 12 weeks results
[7] = 2 × 50 mg b.i.d., at week 1, 24 weeks results
[8] = 2 × 100 mg b.i.d., week 2, 12 weeks results
[9] = 2 × 100 mg b.i.d., week 2, 24 weeks results
[10] = 2 × 100 mg b.i.d., week 4, 12 weeks results
[11] = 2 × 100 mg b.i.d., week 4, 24 weeks results
[12] = 2 × 100 mg b.i.d., week 8, 12 weeks results
[13] = 2 × 100 mg b.i.d., week 8, 24 weeks results
[14] = 2 × 100 mg b.i.d., week 12, 12 weeks results
[15] = 2 × 100 mg b.i.d., week 12, 24 weeks results
[16] = 2 × 100 mg b.i.d., week 16, 24 weeks results
[17] = 2 × 100 mg b.i.d., week 20, 24 weeks results
[18] = 2 × 100 mg b.i.d., week 24, 24 weeks results
[19] = 2 × 100 mg b.i.d., at week 1, 12 weeks results
[20] = 2 × 100 mg b.i.d., at week 1, 24 weeks results

## O=C(Nc1nc2cccc(-c3ccc(CN4CCS(=O)(=O)CC4)cc3)n2n1)C1CC1 [Compound 1, cyclopropanecarboxylic acid {5-[4-(1,1-dioxo-thiomorpholin-4-ylmethyl)-phenyl]-[1,2,4]triazolo[1,5-a]pyridin-2-yl}-amide]
2 × 50 mg b.i.d., week 8, 24 weeks results
  ACR70 (NRI): 14.1%
[1]
  ACR20 (LOCF): 58.8%
  ACR20 (NRI): 58.8%
  ACR50 (LOCF): 34.1%
  ACR50 (NRI): 34.1%
  ACR70 (LOCF): 18.8%
  ACR70 (NRI): 18.8%
[2]
  ACR20 (LOCF): 60.0%
  ACR20 (NRI): 58.8%
  ACR50 (LOCF): 34.1%
  ACR50 (NRI): 34.1%
  ACR70 (LOCF): 18.8%
  ACR70 (NRI): 18.8%
[3]
  ACR20 (LOCF): 67.1%
  ACR20 (NRI): 64.7%
  ACR50 (LOCF): 32.9%
  ACR70 (LOCF): 21.2%
[4]
  ACR20 (LOCF): 68.2%
  ACR20 (NRI): 65.9%
  ACR50 (LOCF): 41.2%
  ACR70 (LOCF): 22.4%
[5]
  ACR20 (LOCF): 67.1%
  ACR20 (NRI): 60.0%
  ACR50 (LOCF): 38.8%
  ACR70 (LOCF): 24.7%
[6]
  ACR20 (LOCF): 22.4%
  ACR20 (NRI): 22.4%
  ACR50 (LOCF): 7.1%
  ACR50 (NRI): 7.1%
  ACR70 (LOCF): 2.4%
  ACR70 (NRI): 2.4%
[7]
  ACR20 (LOCF): 22.4%
  ACR20 (NRI): 22.4%
  ACR50 (LOCF): 7.1%
  ACR50 (NRI): 7.1%
  ACR70 (LOCF): 2.4%
  ACR70 (NRI): 2.4%
[8]
  ACR20 (LOCF): 53.6%
  ACR20 (NRI): 54.8%
  ACR50 (LOCF): 22.6%
  ACR50 (NRI): 21.4%
  ACR70 (LOCF): 4.8%
  ACR70 (NRI): 3.6%
[9]
  ACR20 (LOCF): 56.0%
  ACR20 (NRI): 54.8%
  ACR50 (LOCF): 22.6%
  ACR50 (NRI): 21.4%
  ACR70 (LOCF): 4.8%
  ACR70 (NRI): 3.6%
[10]
  ACR20 (LOCF): 67.9%
  ACR20 (NRI): 69.0%
  ACR50 (LOCF): 34.5%
  ACR50 (NRI): 35.7%
  ACR70 (LOCF): 9.5%
  ACR70 (NRI): 10.7%
[11]
  ACR20 (LOCF): 67.9%
  ACR20 (NRI): 67.9%
  ACR50 (LOCF): 34.5%
  ACR50 (NRI): 34.5%
  ACR70 (LOCF): 10.7%
  ACR70 (NRI): 10.7%
[12]
  ACR20 (LOCF): 75.0%
  ACR20 (NRI): 75.0%
  ACR50 (LOCF): 45.2%
  ACR50 (NRI): 45.2%
  ACR70 (LOCF): 26.2%
  ACR70 (NRI): 27.4%
[13]
  ACR20 (LOCF): 75.0%
  ACR20 (NRI): 75.0%
  ACR50 (LOCF): 45.2%
  ACR50 (NRI): 45.2%
  ACR70 (LOCF): 27.4%
  ACR70 (NRI): 27.4%
[14]
  ACR20 (LOCF): 79.8%
  ACR20 (NRI): 79.8%
  ACR50 (LOCF): 56.0%
  ACR50 (NRI): 54.8%
  ACR70 (LOCF): 29.8%
  ACR70 (NRI): 31.0%
[15]
  ACR20 (LOCF): 81.0%
  ACR20 (NRI): 79.8)
  ACR50 (LOCF): 57.1%
  ACR50 (NRI): 54.8%
  ACR70 (LOCF): 31.0%
  ACR70 (NRI): 31.0%
[16]
  ACR20 (LOCF): 84.5%
  ACR20 (NRI): 82.1%
  ACR50 (LOCF): 64.3%
  ACR70 (LOCF): 36.9%
[17]
  ACR20 (LOCF): 88.1%
  ACR20 (NRI): 84.5%
  ACR50 (LOCF): 61.9%
  ACR70 (LOCF): 36.9%
[18]
  ACR20 (LOCF): 86.9%
  ACR20 (NRI): 79.8%
  ACR50 (LOCF): 61.9%
  ACR70 (LOCF): 42.9%
[19]
  ACR20 (LOCF): 33.3%
  ACR20 (NRI): 34.5%
  ACR50 (LOCF): 7.1%
  ACR50 (NRI): 7.1%
  ACR70 (LOCF): 4.8%
  ACR70 (NRI): 4.8%
[20]
  ACR20 (LOCF): 34.5%
  ACR20 (NRI): 34.5%
  ACR50 (LOCF): 7.1%
  ACR50 (NRI): 7.1%
  ACR70 (LOCF): 4.8%
  ACR70 (NRI): 4.8%
